Patent US20240343704A1, “HALO-SUBSTITUTED AMINO PYRIDINE COMPOUNDS AS INHIBITORS OF THE HAEMATOPOIETIC PROGENITOR KINASE 1 (HPK1)” (priority 2021, published 2024)

Target: T1, Recombinant (1-346) HPK1 (h) (Homo sapiens, UniProt Q92918)
T1 construct: Recombinant (1-346) HPK1 (h) is incubated with 8 mM MOPS pH 7.0
T1 sequence (Q92918 1-346): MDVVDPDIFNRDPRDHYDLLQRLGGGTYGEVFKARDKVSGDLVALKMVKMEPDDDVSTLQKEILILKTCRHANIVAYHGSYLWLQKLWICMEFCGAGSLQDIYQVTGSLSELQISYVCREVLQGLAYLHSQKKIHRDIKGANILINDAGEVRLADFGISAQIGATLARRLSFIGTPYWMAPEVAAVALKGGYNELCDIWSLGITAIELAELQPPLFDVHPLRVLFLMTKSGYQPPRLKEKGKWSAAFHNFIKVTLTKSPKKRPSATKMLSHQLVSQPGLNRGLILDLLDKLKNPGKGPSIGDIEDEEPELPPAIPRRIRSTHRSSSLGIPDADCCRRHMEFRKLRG
Experiment: HPK1 Human STE Kinase Enzymatic Radiometric Assay
Format: biochemical
Settings: read-out: HPK1 IC50 nM Range*
Method: A stock solution of 10 mM of test compound is prepared in DMSO. The compound plate was prepared by 3-fold and 9-point serial dilutions. […] The reaction is initiated by The addition of the Mg/ATP mix. After incubation for 40 minutes at RT, the reaction is stopped by the addition of phosphoric acid to a concentration of 0.5%.

| Structure (SMILES) | IC50 [nM] |
| --- | --- |
| Nc1nc(F)c(-c2ccc(N3CCOCC3)c(CN3CCCC3)c2)cc1-c1cc2c(cc1F)C(=O)NCC2 [I-492, 6-(2-amino-6-fluoro-5-(4-morpholino-3-(pyrrolidin-1-ylmethyl)phenyl)pyridin-3-yl)-7-fluoro-3,4-dihydroisoquinolin-1(2H)-one] | 11 to 100 |
| CN(C)Cc1cc(-c2cc(-c3ccc4c(c3)CCNC4=O)c(N)nc2F)ccc1N1CCS(=O)(=O)CC1 [I-493, 6-(2-amino-5-(3-((dimethylamino)methyl)-4-(1,1-dioxidothiomorpholino)phenyl)-6-fluoropyridin-3-yl)-3,4-dihydroisoquinolin-1(2H)-one] | 11 to 100 |
| CN(C)Cc1cc(-c2cc(-c3cc4c(cc3F)C(=O)NCC4)c(N)nc2F)ccc1N1CCN(C2CC2)CC1 [I-494, 6-(2-amino-5-(4-(4-cyclopropylpiperazin-1-yl)-3-((dimethylamino)methyl)phenyl)-6-fluoropyridin-3-yl)-7-fluoro-3,4-dihydroisoquinolin-1(2H)-one] | 11 to 100 |
| CN(C)Cc1cc(-c2cc(-c3ccc4c(c3)CCNC4=O)c(N)nc2F)ccc1N1CCN(C2CC2)CC1 [I-495, 6-(2-amino-5-(4-(4-cyclopropylpiperazin-1-yl)-3-((dimethylamino)methyl)phenyl)-6-fluoropyridin-3-yl)-3,4-dihydroisoquinolin-1(2H)-one] | 11 to 100 |
| Nc1nc(F)c(-c2ccc(N3CCOCC3)c(CN3CCOCC3)c2)cc1-c1ccc2c(c1)CCNC2=O [I-496, 6-(2-amino-6-fluoro-5-(4-morpholino-3-(morpholinomethyl)phenyl)pyridin-3-yl)-3,4-dihydroisoquinolin-1(2H)-one] | 11 to 100 |
| Nc1nc(F)c(-c2ccc(N3CCOCC3)c(CN3CCOCC3)c2)cc1-c1cc2c(cc1F)C(=O)NCC2 [I-497, 6-(2-amino-6-fluoro-5-(4-morpholino-3-(morpholinomethyl)phenyl)pyridin-3-yl)-7-fluoro-3,4-dihydroisoquinolin-1(2H)-one] | 11 to 100 |
| CN(C)Cc1cc(-c2cc(-c3cc4c(cc3F)C(=O)NCC4)c(N)nc2F)ccc1N1CCS(=O)(=O)CC1 [I-498, 6-(2-amino-5-(3-((dimethylamino)methyl)-4-(1,1-dioxidothiomorpholino)phenyl)-6-fluoropyridin-3-yl)-7-fluoro-3,4-dihydroisoquinolin-1(2H)-one] | 11 to 100 |
| C[C@@H]1CN(c2ccc(-c3cc(-c4ccc5c(=O)[nH]cc(F)c5c4)c(N)nc3F)cc2)C[C@H](C)N1C [I-499, 6-(2-amino-6-fluoro-5-(4-((3R,5S)-3,4,5-trimethylpiperazin-1-yl)phenyl)pyridin-3-yl)-4-fluoroisoquinolin-1(2H)-one] | 0.1 to 10 |
| Cc1nc2cc(-c3cc(-c4ccc(N5C[C@@H](C)N(C)[C@@H](C)C5)cc4)c(F)nc3N)ccc2c(=O)[nH]1 [I-500, 7-(2-amino-6-fluoro-5-(4-((3R,5S)-3,4,5-trimethylpiperazin-1-yl)phenyl)pyridin-3-yl)-2-methylquinazolin-4(3H)-one] | 11 to 100 |
| Cc1nc2cc(-c3cc(-c4ccc(N5C[C@@H](C)N(C)[C@@H](C)C5)cc4)c(F)nc3N)cc(F)c2c(=O)[nH]1 [I-501, 7-(2-amino-6-fluoro-5-(4-((3R,5S)-3,4,5-trimethylpiperazin-1-yl)phenyl)pyridin-3-yl)-5-fluoro-2-methylquinazolin-4(3H)-one] | 11 to 100 |
| Cc1c[nH]c(=O)c2ccc(-c3cc(-c4ccc(N5CCOCC5)c(CN(C)C)c4)c(F)nc3N)cc12 [I-502, 6-(2-amino-5-(3-((dimethylamino)methyl)-4-morpholinophenyl)-6-fluoropyridin-3-yl)-4-methylisoquinolin-1(2H)-one] | 0.1 to 10 |
| Cc1cc2cc(-c3cc(-c4ccc(C5CCOCC5)c(CN(C)C)c4)c(F)nc3N)cc(F)c2c(=O)[nH]1 [I-504, 6-(2-amino-5-(3-((dimethylamino)methyl)-4-(tetrahydro-2H-pyran-4-yl)phenyl)-6-fluoropyridin-3-yl)-8-fluoro-3-methylisoquinolin-1(2H)-one] | 11 to 100 |
| Cc1cc2cc(-c3cc(-c4ccc(N5CCOCC5)c(CN(C)C)c4)c(F)nc3N)cc(F)c2c(=O)[nH]1 [I-505, 6-(2-amino-5-(3-((dimethylamino)methyl)-4-morpholinophenyl)-6-fluoropyridin-3-yl)-8-fluoro-3-methylisoquinolin-1(2H)-one] | 11 to 100 |
| CN(C)Cc1cc(-c2cc(-c3ccc4c(c3)CCNC4=O)c(N)nc2F)ccc1OCC1CC1 [I-506, 6-(2-amino-5-(4-(cyclopropylmethoxy)-3-((dimethylamino)methyl)phenyl)-6-fluoropyridin-3-yl)-3,4-dihydroisoquinolin-1(2H)-one] | 11 to 100 |
| CN(C)Cc1cc(-c2cc(-c3cc4c(cc3F)C(=O)NCC4)c(N)nc2F)ccc1OCC1CC1 [I-507, 6-(2-amino-5-(4-(cyclopropylmethoxy)-3-((dimethylamino)methyl)phenyl)-6-fluoropyridin-3-yl)-7-fluoro-3,4-dihydroisoquinolin-1(2H)-one] | 11 to 100 |
| COC1CCN(Cc2cc(-c3cc(-c4ccc5c(c4)CCNC5=O)c(N)nc3F)ccc2OCC2CC2)CC1 [I-508, 6-(2-amino-5-(4-(cyclopropylmethoxy)-3-((4-methoxypiperidin-1-yl)methyl)phenyl)-6-fluoropyridin-3-yl)-3,4-dihydroisoquinolin-1(2H)-one] | 11 to 100 |
| COC1CCN(Cc2cc(-c3cc(-c4cc5c(cc4F)C(=O)NCC5)c(N)nc3F)ccc2OCC2CC2)CC1 [I-509, 6-(2-amino-5-(4-(cyclopropylmethoxy)-3-((4-methoxypiperidin-1-yl)methyl)phenyl)-6-fluoropyridin-3-yl)-7-fluoro-3,4-dihydroisoquinolin-1(2H)-one] | 11 to 100 |
| COC1CCN(Cc2cc(-c3cc(-c4ccc5c(c4)CCNC5=O)c(N)nc3F)ccc2N2CCOCC2)CC1 [I-510, 6-(2-amino-6-fluoro-5-(3-((4-methoxypiperidin-1-yl)methyl)-4-morpholinophenyl)pyridin-3-yl)-3,4-dihydroisoquinolin-1(2H)-one] | 11 to 100 |
| COC1CCN(Cc2cc(-c3cc(-c4cc5c(cc4F)C(=O)NCC5)c(N)nc3F)ccc2N2CCOCC2)CC1 [I-511, 6-(2-amino-6-fluoro-5-(3-((4-methoxypiperidin-1-yl)methyl)-4-morpholinophenyl)pyridin-3-yl)-7-fluoro-3,4-dihydroisoquinolin-1(2H)-one] | 11 to 100 |
| COC1CCN(Cc2cc(-c3cc(-c4ccc5c(c4)CCNC5=O)c(N)nc3F)ccc2N2CCSCC2)CC1 [I-512, 6-(2-amino-6-fluoro-5-(3-((4-methoxypiperidin-1-yl)methyl)-4-thiomorpholinophenyl)pyridin-3-yl)-3,4-dihydroisoquinolin-1(2H)-one] | 11 to 100 |
| COC1CCN(Cc2cc(-c3cc(-c4cc5c(cc4F)C(=O)NCC5)c(N)nc3F)ccc2N2CCSCC2)CC1 [I-513, 6-(2-amino-6-fluoro-5-(3-((4-methoxypiperidin-1-yl)methyl)-4-thiomorpholinophenyl)pyridin-3-yl)-7-fluoro-3,4-dihydroisoquinolin-1(2H)-one] | 11 to 100 |
| Nc1nc(F)c(-c2ccc(C3=CCOCC3)cc2C=O)cc1-c1cc2c(cc1F)C(=O)NCC2 [I-514, 2-(6-amino-2-fluoro-5-(7-fluoro-1-oxo-1,2,3,4-tetrahydroisoquinolin-6-yl)pyridin-3-yl)-5-(3,6-dihydro-2H-pyran-4-yl)benzaldehyde] | 101 to 1000 |
| Cc1[nH]c(=O)c2ccc(-c3cc(-c4ccc(N5CCOCC5)c(CN(C)C)c4)c(F)nc3N)cc2c1F [I-515, 6-(2-amino-5-(3-((dimethylamino)methyl)-4-morpholinophenyl)-6-fluoropyridin-3-yl)-4-fluoro-3-methylisoquinolin-1(2H)-one] | 11 to 100 |
| COc1ccc(-c2cc(-c3ccc4c(c3)CCNC4=O)c(N)nc2F)cc1CN1CC(OC)C1 [I-516, 6-(2-amino-6-fluoro-5-(4-methoxy-3-((3-methoxyazetidin-1-yl)methyl)phenyl)pyridin-3-yl)-3,4-dihydroisoquinolin-1(2H)-one] | 11 to 100 |
| COc1ccc(-c2cc(-c3cc4c(cc3F)C(=O)NCC4)c(N)nc2F)cc1CN1CC(OC)C1 [I-517, 6-(2-amino-6-fluoro-5-(4-methoxy-3-((3-methoxyazetidin-1-yl)methyl)phenyl)pyridin-3-yl)-7-fluoro-3,4-dihydroisoquinolin-1(2H)-one] | 11 to 100 |
| COc1ccc(-c2cc(-c3ccc4c(c3)CCNC4=O)c(N)nc2F)cc1CN1CCC(OC)CC1 [I-518, 6-(2-amino-6-fluoro-5-(4-methoxy-3-((4-methoxypiperidin-1-yl)methyl)phenyl)pyridin-3-yl)-3,4-dihydroisoquinolin-1(2H)-one] | 11 to 100 |
| COc1ccc(-c2cc(-c3cc4c(cc3F)C(=O)NCC4)c(N)nc2F)cc1CN1CCC(OC)CC1 [I-519, 6-(2-amino-6-fluoro-5-(4-methoxy-3-((4-methoxypiperidin-1-yl)methyl)phenyl)pyridin-3-yl)-7-fluoro-3,4-dihydroisoquinolin-1(2H)-one] | 11 to 100 |
| Nc1nc(F)c(-c2ccc([C@]34C[C@H]3CN(C3CCC3)C4)cc2)cc1-c1ccc2c(=O)[nH]cc(F)c2c1 [I-520, 6-(2-amino-5-(4-((1S,5R)-3-cyclobutyl-3-azabicyclo[3.1.0]hexan-1-yl)phenyl)-6-fluoropyridin-3-yl)-4-fluoroisoquinolin-1(2H)-one] | 0.1 to 10 |
